Assay results published in patent US4537895A, “Isoquinoline derivatives” (EGYT Gyogyszervegyeszeti Gyar, priority 1982, dated 1985).

Legend:
spontaneous motility = experiment: Test 3: spontaneous motility; type: in vivo
Description: 3. Lowest i.p. dose which still increases or decreases the spontaneous motility of the mice.
(§1) The acute toxicity data are determined in mice. Tests 2-6 are also carried out in mice. The doses are expressed in micromole/kg. The therapeutical index (TI) is the LD/ED quotient.
In Test 3 "+=motility increase" and "-=motility decrease."

prolactine level = experiment: Test 10: decrease of prolactine level in ovariectomised rats; type: in vivo; settings: Rattus norvegicus, 96 h, after 4 days treatment with oestradiol 0.073 umole/kg, read-out: Dose which induces a significant decrease of the prolactine level (Test 10)
Description: 10. The dose which induces a significant decrease of the prolactine level after 4 days treatment with a dose of 0.073 umole/kg of oeastradiol, on three weeks earlier ovariectomised rats.
(§2) Tests 7-10 are carried out in cats and rats, the doses are expressed in micromole/kg.
(§3) Tests 2, 8, 9 and 10 are suitable for the evaluation of the dopaminerg stimulating effect of the test compounds (potential anti-parkinson agent). Tests 4, 5, 6 and 7 give information about the catecholamine-uptake inhibiting effect (potential antidepressive activity).

[1] = system: catalepsy induced by tetrabenazine; experiment: Test 4: inhibition of tetrabenazine-induced catalepsy; type: in vivo
Description: (§4) 4. S.c. dose which inhibits the catalepsy induced by a 110 umole/kg dose of tetrabenazine, in 50% of the mice.
as §1, §3

[2] = system: catalepsy induced by Haloperidol / tetrabenazine; experiment: Comparison of anti-haloperidol (Test 2) and anti-tetrabenazine (Test 4) activity; type: in vivo, mice
Description: (§5) 2. S.c. dose which inhibits the catalepsy induced by a 13 umole/kg dose of Haloperidol, in 50% of the mice.
as §4, §1
On comparing the dopaminerg type anti-haloperidol test and the anti-tetrabenazine activity being characteristic of the antidepressive effect the following can be stated:
The quotient of the ED values of Columns 2 and 4 is the highest for Compound I (55:13=4.2). […] The said quotient is high in the case of Nomifensine (1.6), Compound D (1.8), Compound E (2.7) and Compound F (1.7).

[3] = system: blood pressure and nictitating membrane; experiment: Test 7: blood pressure and nictitating membrane effect; type: in vivo; settings: Felis catus, iv, cats; ">" = inactive in the given dose; read-out: Lowest i.v. dose which still increases the blood pressure and nictitating membrane effect (Test 7)
Description: as §2, §3

[4] = Overall comparison with Nomifensine in the pharmacological tests; type: in vivo
Description: The pharmacological activity of the compounds of the present invention is determined by the following tests:
as §1, §2

[5] = Acute toxicity, s.c., LD50; parameters: species or system mice; settings: mouse, in vivo
Description: as §1

[6] = system: decrease of the rectal temperature caused by reserpine; experiment: Test 6: reserpine-induced decrease of rectal temperature; type: in vivo
Description: 6. The lowest s.c. dose which still hinders the decrease of the rectal temperature caused by the administration of a 1,6 umole/kg dose of reserpine.
as §1, §3

[7] = system: catalepsy induced by Haloperidol; experiment: Test 2: inhibition of haloperidol-induced catalepsy; type: in vivo
Description: as §5, §1, §3

stereotypy = experiment: Test 8: induction of stereotypy; type: in vivo; settings: Rattus norvegicus, sc, rats; ">" = inactive in the given dose; read-out: Lowest s.c. dose which still induces stereotypy (Test 8)
Description: 8. The lowest s.c. dose which still induces stereotypy, in rats.
as §2, §3

[8] = system: ptosis induced by tetrabenazine; experiment: Test 5: inhibition of tetrabenazine-induced ptosis; type: in vivo
Description: 5. S.c. dose which inhibits the ptosis induced by a dose of 79 umole/kg of tetrabenazine, in 50% of the mice.
as §1, §3

## CCOC(=O)Nc1cccc2c1CN(C)CC2c1ccc(Cl)cc1 (stereo not shown) [Compound I, 8-ethoxycarbonylamino-4-p-chloro-phenyl-2-methyl-1,2,3,4-tetrahydroisoquinoline]
Spontaneous motility; LD50 / ED of Test 3
  TI (Test 3), LD/ED quotient: 275
Spontaneous motility; Mus musculus, ip, read-out: ED, lowest i.p. dose which still decreases the spontaneous motility (Test 3, -)
  minimal effective dose: 7.9 µmol/kg
Prolactine level
  minimal effective dose: 26 µmol/kg
[1]; LD50 / ED of Test 4
  TI (Test 4), LD/ED quotient: 167
[1]; Mus musculus, sc, read-out: ED, s.c. dose which inhibits the catalepsy induced by tetrabenazine in 50% of the mice (Test 4)
  ED50: 13 µmol/kg
[2]; ED Test 2 (haloperidol) : ED Test 4 (tetrabenazine)
  Quotient of the ED values of Columns 2 and 4: 4,2
[2]; from quotient ED2:ED4
  Antidepressant versus antiparkinson profile (in words): relatively a stronger antidepressant than an antiparkinsone agent
[3]
  minimal effective dose: 1.3 µmol/kg
[4]; all tests
  Activity compared with Nomifensine (in words): activity is higher than that of Nomifensine
[4]; various tests
  Therapeutical index relative to that of Nomifensine: 2-6,8 times higher
[5]
  Toxicity compared with Nomifensine (in words): toxicity is much lower
[5]; sc, mice, 96 hour observation
  LD50 at 96 h: 2180 µmol/kg
[6]; LD50 / ED of Test 6
  TI (Test 6), LD/ED quotient: 84
[6]; Mus musculus, sc, read-out: ED, lowest s.c. dose which still hinders the decrease of the rectal temperature caused by reserpine (Test 6)
  minimal effective dose: 26 µmol/kg
[7]; LD50 / ED of Test 2
  TI (Test 2), LD/ED quotient: 40
[7]; Mus musculus, sc, read-out: ED, s.c. dose which inhibits the catalepsy induced by Haloperidol in 50% of the mice (Test 2)
  ED50: 55 µmol/kg
stereotypy
  minimal effective dose: 21 µmol/kg
[8]; LD50 / ED of Test 5
  TI (Test 5), LD/ED quotient: 1360
[8]; Mus musculus, sc, read-out: ED, s.c. dose which inhibits the ptosis induced by tetrabenazine in 50% of the mice (Test 5)
  ED50: 1.6 µmol/kg
